# Read-outs that look alike come from different tables or passages of the source.
# Legend:
# housefly [1] = assay: Insecticidal activity against housefly (Filter paper bait and contact method); assay type: in vivo; conditions: for mortality at 500 ppm: Musca domestica
# Method: Each 20 parts of the present compounds No. 1 to No. 29, 10 parts of an emulsifier (Sorpol 3005X; trademark for Toho Chemical Co.) and 70 parts of xylene are thoroughly mixed by stirring to obtain an emulsifiable concentrate of each compound.
# A piece of filter paper, 5.5 cm in diameter, was laid on the bottom of a polyethylene cup of the identical inner diameter. An emulsifiable concentrate prepared in the same manner as in Preparation Example 2 was diluted with water. To the filter paper, was added dropwise 0.7 ml of the diluted sample (500 ppm in concentration). Sucrose (30 mg) was placed on the filter paper to serve as bait. Ten adult female houseflies were released into the cup, closed with a cover, and observed for the number of dead and alive insects after 48 hours to calculate the mortality (2 replications).
# northern house mosquito = assay: Activity of oil spray against adult female northern house mosquito (glass chamber); assay type: in vivo
# Method: (§1) 0.1 Part of each compound Nos. 10, 12, 15, 17, 18, 19, 22, 23 and 29 of this invention is dissolved in deodorized kerosene and made up to 100 parts with kerosene to obtain an oil spray.
# (§2) Ten adult houseflies and ten adult female northern house mosquitos were released in a glass chamber, 70×70×70 cm in size. An oil spray preparation (0.5 ml) obtained in Preparation Example 1 was sprayed inside the chamber and the insects were exposed to the descending mist for 10 minutes, during which time the number of knocked-down insects was counted at predetermined time intervals to determine the 50% knockdown time (KT50). On the following day, the dead and alive insects were observed.
# housefly [2] = assay: Activity of oil spray against adult housefly (glass chamber); assay type: in vivo; conditions: oil spray 0.5 ml, 10 minutes exposure; for mortality, House fly: observed on the following day, 1440 min
# Method: as §1, §2
# housefly [3] = assay: Insecticidal activity against housefly (Topical application method); assay type: in vivo; conditions: dorsal thorax, adult female, 24 hours
# Method: The present compounds and the reference compounds were diluted with acetone to prescribed concentrations. Each 0.5 μl of the diluted samples was applied topically with a microsyringe onto the dorsal thorax of an adult female housefly. The flies were fed and observed for the number of dead and alive insects after 24 hours. LD50 (median lethal dose) was calculated from the mortalities at each dosage by probit method.
# green rice leafhopper = assay: Insecticidal activity against green rice leafhopper; conditions: Nephotettix cincticeps, 24 h
# tobacco cutworm = assay: Insecticidal activity against tobacco cutworm; assay type: in vivo; conditions: 24 h
# Method: An artificial diet (15 g) for tobacco cutworm was wet with 2 ml of the prescribed aqueous dilution of an emulsifiable concentrate obtained in Preparation Example 2 or of that obtained from reference compounds. The diet thus treated was placed in a polyethylene cup of 11 cm in diameter.
# [4] = 500 ppm, 48 hours, adult female houseflies, read-out: Mortality
# [5] = northern house mosquito, in vivo, 24 h
# [6] = oil spray 0.5 ml, 10 minutes exposure
# [7] = read-out: Percent mortality days after spraying: 0
# [8] = read-out: Percent mortality days after spraying: 3
# [9] = read-out: Percent mortality days after spraying: 7
# [10] = read-out: LC50 (median lethal concentration), treated artificial diet, third-instar larvae, 24 hours
# [11] = oil spray 0.5 ml, 10 minutes exposure, observed on the following day, 1440 min
# [12] = read-out: LC50 (median lethal concentration)
compound,measurement,setting,value
CC1(C)[C@@H](C(=O)OC(C#N)c2cccc(Oc3ccccc3)c2)[C@]12Cc1ccccc1O2 (relative stereo) [Compound 17],mortality at 500 ppm,housefly [1]; [4],100%
same,"mortality, Northern house mosquito",northern house mosquito; [5],100%
same,"KT50 (50% knockdown time), Northern house mosquito",northern house mosquito; [6],330 s
same,"KT50 (50% knockdown time), House fly",housefly [2],264 s
same,"mortality, House fly",housefly [2],80%
same,LD50 (median lethal dose),housefly [3],0.064 μg/female
CC1(C)C(C(=O)OC(C#N)c2cccc(Oc3ccccc3)c2)C12Cc1c(F)c(F)c(F)c(F)c1C2 (centres unmarked) [Compound 1],mortality at 50 ppm,green rice leafhopper; [7],100%
same,mortality at 50 ppm,green rice leafhopper; [8],100%
same,mortality at 50 ppm,green rice leafhopper; [9],86%
same,mortality at 500 ppm,housefly [1]; [4],100%
same,LC50,tobacco cutworm; [10],3.5 µg/mL
same,LD50 (median lethal dose),housefly [3],0.0052 μg/female
CC1(C)C(C(=O)OC(C#N)c2cccc(Oc3ccccc3)c2)C12Cc1ccccc1C2 (centres unmarked) [Compound 2],mortality at 50 ppm,green rice leafhopper; [7],100%
same,mortality at 50 ppm,green rice leafhopper; [8],100%
same,mortality at 50 ppm,green rice leafhopper; [9],100%
same,mortality at 500 ppm,housefly [1]; [4],100%
same,LC50,tobacco cutworm; [10],2 µg/mL
same,LD50 (median lethal dose),housefly [3],0.0045 μg/female
CC1(C)C(C(=O)OC(C#N)c2cccc(Oc3ccccc3)c2)C12Cc1ccc(Cl)cc1C2 (centres unmarked) [Compound 3],mortality at 50 ppm,green rice leafhopper; [7],100%
same,mortality at 50 ppm,green rice leafhopper; [8],100%
same,mortality at 50 ppm,green rice leafhopper; [9],100%
same,mortality at 500 ppm,housefly [1]; [4],100%
same,LC50,tobacco cutworm; [10],3.3 µg/mL
same,LD50 (median lethal dose),housefly [3],0.0076 μg/female
CC1(C)C(C(=O)OC(C#N)c2cccc(Oc3ccccc3)c2)C12Cc1ccc(F)cc1C2 (centres unmarked) [Compound 4],mortality at 500 ppm,housefly [1]; [4],100%
same,LC50,tobacco cutworm; [10],1 µg/mL
same,LD50 (median lethal dose),housefly [3],0.0042 μg/female
CC1(C)C(C(=O)OC(C#N)c2cccc(Oc3ccccc3)c2)C12Cc1ccc(Br)cc1C2 (centres unmarked) [Compound 5],mortality at 50 ppm,green rice leafhopper; [7],100%
same,mortality at 50 ppm,green rice leafhopper; [8],100%
same,mortality at 50 ppm,green rice leafhopper; [9],100%
same,mortality at 500 ppm,housefly [1]; [4],100%
same,LC50,tobacco cutworm; [10],7.2 µg/mL
same,LD50 (median lethal dose),housefly [3],0.018 μg/female
CC1(C)C(C(=O)OC(C#N)c2cccc(Oc3ccccc3)c2)C12Cc1cccc(F)c1C2 (centres unmarked) [Compound 6],mortality at 500 ppm,housefly [1]; [4],100%
CC1(C)C(C(=O)O[C@H](C#N)c2cccc(Oc3ccccc3)c2)C12Cc1ccccc1C2 (some centres unmarked) [Compound 8],mortality at 500 ppm,housefly [1]; [4],100%
same,LC50,tobacco cutworm; [10],1.1 µg/mL
same,LD50 (median lethal dose),housefly [3],0.0032 μg/female
CC1(C)C(C(=O)O[C@H](C#N)c2cccc(Oc3ccccc3)c2)C12Cc1ccccc1C2 (some centres unmarked) [Compound 9],Mortality,"housefly [1]; 500 ppm, 48 hours, adult female houseflies",100%
same,LC50 (median lethal concentration),"tobacco cutworm; tobacco cutworm, in vivo",0.6 ppm
same,LD50 (median lethal dose),housefly [3],0.0013 μg/female
CC1(C)C(C(=O)OCc2coc(Cc3ccccc3)c2)C12Cc1ccccc1C2 (centres unmarked) [Compound 11],mortality at 500 ppm,housefly [1]; [4],100%
same,LD50 (median lethal dose),housefly [3],0.023 μg/female
CC1(C)C(C(=O)OCN2C(=O)C3=C(CCCC3)C2=O)C12Cc1ccccc1C2 (centres unmarked) [Compound 12],mortality at 500 ppm,housefly [1]; [4],100%
same,"mortality, Northern house mosquito",northern house mosquito; [5],95%
same,"KT50 (50% knockdown time), Northern house mosquito",northern house mosquito; [6],400 s
same,"KT50 (50% knockdown time), House fly",housefly [2],125 s
same,"mortality, House fly",housefly [2],10%
CC1(C)C(C(=O)OCc2cccc(Cc3ccccc3)c2)C12Cc1ccccc1C2 (centres unmarked) [Compound 13],mortality at 50 ppm,green rice leafhopper; [7],100%
same,mortality at 50 ppm,green rice leafhopper; [8],93%
same,mortality at 50 ppm,green rice leafhopper; [9],100%
same,mortality at 500 ppm,housefly [1]; [4],100%
C#CC(OC(=O)C1C(C)(C)C12Cc1ccccc1C2)C(C)=CCC (centres unmarked) [Compound 14],mortality at 500 ppm,housefly [1]; [4],100%
CC1(C)C(C(=O)OC(C#N)c2cccc(Oc3ccc(Br)cc3)c2)C12Cc1ccccc1C2 (centres unmarked) [Compound 16],mortality at 50 ppm,green rice leafhopper; [7],100%
same,mortality at 50 ppm,green rice leafhopper; [8],100%
same,mortality at 50 ppm,green rice leafhopper; [9],97%
same,mortality at 500 ppm,housefly [1]; [4],100%
CC1(C)C(C(=O)OC(C#N)c2cccc(Oc3ccccc3)c2)C12Cc1ccccc12 (centres unmarked) [Compound 19],mortality at 500 ppm,housefly [1]; 48 h,100%
same,"KT50 (50% knockdown time), Northern house mosquito",northern house mosquito; [6],492 s
same,"mortality, Northern house mosquito",northern house mosquito; [11],100%
same,"KT50 (50% knockdown time), House fly",housefly [2],600 s
same,"mortality, House fly",housefly [2],80%
same,LC50,tobacco cutworm; [12],5 µg/mL
CC1(C)C(C(=O)OC(C#N)c2ccc(F)c(Oc3ccccc3)c2)C12Cc1ccccc12 (centres unmarked) [Compound 20],mortality at 50 ppm,green rice leafhopper; [7],100%
same,mortality at 50 ppm,green rice leafhopper; [8],100%
same,mortality at 50 ppm,green rice leafhopper; [9],90%
same,mortality at 500 ppm,housefly [1]; 48 h,100%
CC1(C)C(C(=O)OCc2cccc(Oc3ccccc3)c2)C12Cc1ccccc1C2 (centres unmarked) [Compound 21],mortality at 500 ppm,housefly [1]; [4],100%
C#CCN1CC(=O)N(COC(=O)C2C(C)(C)C23Cc2ccccc2C3)C1=O (centres unmarked) [Compound 22],mortality at 500 ppm,housefly [1]; [4],100%
same,"mortality, Northern house mosquito",northern house mosquito; [5],10%
same,"KT50 (50% knockdown time), Northern house mosquito",northern house mosquito; [6],344 s
same,"KT50 (50% knockdown time), House fly",housefly [2],80 s
same,"mortality, House fly",housefly [2],90%
C#CCC=C(C)C(C#C)OC(=O)C1C(C)(C)C12Cc1ccccc1C2 (centres unmarked) [Compound 23],mortality at 500 ppm,housefly [1]; [4],100%
same,"mortality, Northern house mosquito",northern house mosquito; [5],70%
same,"KT50 (50% knockdown time), Northern house mosquito",northern house mosquito; [6],360 s
same,"KT50 (50% knockdown time), House fly",housefly [2],388 s
same,"mortality, House fly",housefly [2],60%
same,LD50 (median lethal dose),housefly [3],0.045 μg/female
C#CC(C#C)OC(=O)C1C(C)(C)C12Cc1ccccc1C2 (centres unmarked) [Compound 24],mortality at 500 ppm,housefly [1]; [4],100%
CC1(C)C(C(=O)OCC=C(Cl)Cc2ccccc2)C12Cc1ccccc1C2 (centres unmarked) [Compound 25],mortality at 500 ppm,housefly [1]; [4],100%
same,LC50,tobacco cutworm; [10],4 µg/mL
C=CCc1cccc2c1CCC2OC(=O)C1C(C)(C)C12Cc1ccc(F)cc1C2 (centres unmarked) [Compound 26],mortality at 500 ppm,housefly [1]; [4],100%
CC1(C)C(C(=O)OCc2c(Cl)c(Cl)c(Cl)c(Cl)c2Cl)C12Cc1ccccc1C2 (centres unmarked) [Compound 28],mortality at 500 ppm,housefly [1]; [4],100%
same,LC50,"tobacco cutworm; treated artificial diet, third-instar larvae, 24 hours, read-out: LC50 (median lethal concentration)",8.7 µg/mL
CC1(C)C(C(=O)OC2C=C(Cc3ccccc3)C(=O)C2)C12Cc1ccccc1C2 (centres unmarked) [Compound 29],mortality at 500 ppm,housefly [1]; [4],100%
same,"mortality, Northern house mosquito",northern house mosquito; [5],70%
same,"KT50 (50% knockdown time), Northern house mosquito",northern house mosquito; [6],296 s
same,"KT50 (50% knockdown time), House fly",housefly [2],298 s
same,"mortality, House fly",housefly [2],40%
"CNC(=O)Oc1cccc2ccccc12 [NAC, 1naphthyl N--methylcarbamate, reference compound]",mortality at 250 ppm,green rice leafhopper; [7],50%
"CC(C)=CC1C(C(=O)OCc2cccc(Oc3ccccc3)c2)C1(C)C (centres unmarked) [drawing 58, reference compound]",LD50 (median lethal dose),housefly [3],0.26 μg/female
"CC1(C)C(C(=O)OC(C#N)c2cccc(Oc3ccccc3)c2)C12C=Cc1ccccc12 (centres unmarked) [drawing 61, reference compound]",LD50 (median lethal dose),housefly [3],0.16 μg/female
"CC(C)=CC1C(C(=O)OCc2cccc(Oc3ccccc3)c2)C1(C)C (centres unmarked) [drawing 62, reference compound]",LC50,tobacco cutworm; [12],24 µg/mL
"CC1(C)C(C(=O)OC(C#N)c2cccc(Oc3ccccc3)c2)C12C=Cc1ccccc12 (centres unmarked) [drawing 63, reference compound]",LC50,tobacco cutworm; [12],46.1 µg/mL
"CC1(C)C(C(=O)OC(C#N)c2cccc(Oc3ccccc3)c2)C12C=Cc1ccccc12 (centres unmarked) [drawing 64, reference compound]","KT50 (50% knockdown time), Northern house mosquito",northern house mosquito; [6],600 s
same,"mortality, Northern house mosquito",northern house mosquito; [11],50%
same,"KT50 (50% knockdown time), House fly",housefly [2],> 600 s
CC(C)=CC1C(C(=O)OC(C#N)c2cccc(Oc3ccccc3)c2)C1(C)C (centres unmarked) [reference compound],LD50 (median lethal dose),housefly [3],0.079 μg/female
